Test results: US9050378B2, “N2S2 chelate-targeting ligand conjugates” (Board of Regents, The University of Texas System, priority 2003, dated 2015)
Values belong to the compound of their own block, whether it stands above or below them. Ends that are not written are not given here.

How the values were obtained:
[1] = test system: RBA CRL-1747 (breast cancer cells); test: In vitro cellular uptake compared to ^99mTc-EC in breast cancer cells; assay type: cell-based, rat; conditions: 0.5-2 hrs
Description: An in vitro cell culture using tumor cells was incubated with ^99mTc-EC-celecoxib (4 μCi/50,000 cells/well) at 0.5-2 hrs in RBA CRL-1747.
An in vitro cell culture using tumor cells was incubated with ^99mTc-EC-LH antibody (4 μCi/50,000 cells/well) at 0.5-2 hrs in RBA CRL-1747 (breast cancer cells).
An in vitro cell culture using tumor cells was incubated with ^99mTc-EC-carnitine (4-6 μCi/50,000 cells/well) at 0.5-2 hrs in breast cancer cells.

[2] = test system: RBA CRL-1747 mammary tumor; test: Biodistribution in breast (mammary) tumor-bearing rats; assay type: in vivo, rat; conditions: iv
Description: (§1) Biodistribution was assessed in mammary tumor-bearing rats (RBA CRL-1747, n=3/time interval, iv). Studies were performed 14 to 17 days after implantation when tumors reached approximately 1 cm in diameter. Following administration of the radiotracer, rats were sacrificed at 0.5-4 hrs. The selected tissues were excised, weighed and counted for radioactivity by using a gamma counter (Packard Instruments, Downers Grove, Ill.). The biodistribution of tracer in each sample was calculated as percentage of the injected dose per gram of tissue wet weight (% ID/g).
as §1, with “breast” for “mammary”

[3] = test system: A549 human lung cancer tumor; test: Tissue distribution in lung tumor-bearing nude mice; assay type: in vivo
Description: Female athymic nude mice (NCr-nu/nu, NCI, Bethasda, Md.) were inoculated with human lung cancer cells (A549 tumor cell line, 3×10^6 cells/mouse, intramuscular) by one author in the mid-dorsal region. After the tumor reached 6 mm, separate biodistribution studies using ^99mTc-EC-DG and 18F-FDG were conducted. Each received ^99mTc-EC-DG or 18F-FDG intravenously (n=3/time point). The injection activity was 1-3 μCi/mouse. The injected mass of ^99mTc-EC-DG was 0.2 mg/rodent.

[4] = In vitro cell culture of ^99mTc-EC-DG with or without transition chelators; assay type: cell-based
Description: It may also be important to include an antioxidant and a transition chelator in the composition to prevent oxidation of the ethylenedicysteine. For example, the antioxidant may be vitamin C (ascorbic acid). However, other antioxidants known to those of ordinary skill in the art, such as tocopherol, pyridoxine, thiamine, or rutin, may also be used. Any transition chelator known to those of ordinary skill in the art may be used in conjunction with the present invention. Examples of transition chelators include glucoheptonate, gluconate, glucarate, citrate, and tartarate.

[5] = test system: human prostate cancer cells (LNCap, PC-3); test: In vitro cellular uptake in human prostate cancer cells; assay type: cell-based; conditions: 0.5-2 hrs, LNCap and PC-3
Description: An in vitro cell culture using tumor cells was incubated with ^99mTc-EC-LHRH (4-6 μCi/100,000 cells/well) at 0.5-2 hrs in human prostate cancer cells. Two types cell lines were used. They are either sensitive to androgen (LNCap) or unresponsive to androgen (PC-3) therapy.

BONE/MUSCLE ([2]; 30 min): 2.419 ± 0.225
Tumor/Blood ([2]; 30 min): 0.255 ± 0.022
Tumor/Muscle ([2]; 30 min): 4.375 ± 0.304
UTERUS/BLOOD ([2]; 30 min): 0.259 ± 0.003
UTERUS/MUSCLE ([2]; 30 min): 4.471 ± 0.257
BONE/MUSCLE ([2]; 2 h): 3.058 ± 0.114
Tumor/Blood ([2]; 2 h): 0.307 ± 0.018
Tumor/Muscle ([2]; 2 h): 6.876 ± 0.704
UTERUS/BLOOD ([2]; 2 h): 0.240 ± 0.021
UTERUS/MUSCLE ([2]; 2 h): 5.442 ± 0.852
BONE/MUSCLE ([2]; 4 h): 4.314 ± 0.739
Tumor/Blood ([2]; 4 h): 0.395 ± 0.014
Tumor/Muscle ([2]; 4 h): 9.715 ± 0.387
UTERUS/BLOOD ([2]; 4 h): 0.255 ± 0.005
UTERUS/MUSCLE ([2]; 4 h): 6.278 ± 0.199
Compound: Cc1ccc(-c2cc(C(F)(F)F)nn2-c2ccc(S(=O)(=O)NC(=O)NCC(=O)NCCNC(=O)C3C[S][99Tc]45(=[O])[S]CC(C(=O)O)[N]4CC[N]35)cc2)cc1 (centres unmarked) [^99mTc-EC-celecoxib]
cellular uptake compared to ^99mTc-EC [1]: significant increase in uptake
tumor-to-tissue count density ratios ([2]; 0.5-4 hrs): increased tumor-to-tissue count density ratios as a function of time
BONE & JOINT ([2]; 30 min): 0.324 ± 0.036 % of injected dose per gram of tissue weight
Blood ([2]; 30 min): 2.293 ± 0.038 % of injected dose per gram of tissue weight
Heart ([2]; 30 min): 0.475 ± 0.025 % of injected dose per gram of tissue weight
Intestine ([2]; 30 min): 0.406 ± 0.039 % of injected dose per gram of tissue weight
Kidney ([2]; 30 min): 4.963 ± 0.147 % of injected dose per gram of tissue weight
Liver ([2]; 30 min): 1.556 ± 0.046 % of injected dose per gram of tissue weight
Lung ([2]; 30 min): 1.033 ± 0.035 % of injected dose per gram of tissue weight
Muscle ([2]; 30 min): 0.133 ± 0.007 % of injected dose per gram of tissue weight
Spleen ([2]; 30 min): 0.594 ± 0.298 % of injected dose per gram of tissue weight
Stomach ([2]; 30 min): 0.370 ± 0.010 % of injected dose per gram of tissue weight
Thyroid ([2]; 30 min): 0.784 ± 0.090 % of injected dose per gram of tissue weight
Tumor ([2]; 30 min): 0.587 ± 0.062 % of injected dose per gram of tissue weight
UTERUS ([2]; 30 min): 0.595 ± 0.003 % of injected dose per gram of tissue weight
BONE & JOINT ([2]; 2 h): 0.190 ± 0.003 % of injected dose per gram of tissue weight
Blood ([2]; 2 h): 1.388 ± 0.063 % of injected dose per gram of tissue weight
Heart ([2]; 2 h): 0.283 ± 0.017 % of injected dose per gram of tissue weight
Intestine ([2]; 2 h): 0.276 ± 0.061 % of injected dose per gram of tissue weight
Kidney ([2]; 2 h): 6.088 ± 0.305 % of injected dose per gram of tissue weight
Liver ([2]; 2 h): 1.461 ± 0.049 % of injected dose per gram of tissue weight
Lung ([2]; 2 h): 0.712 ± 0.098 % of injected dose per gram of tissue weight
Muscle ([2]; 2 h): 0.062 ± 0.003 % of injected dose per gram of tissue weight
Spleen ([2]; 2 h): 0.965 ± 0.056 % of injected dose per gram of tissue weight
Stomach ([2]; 2 h): 0.187 ± 0.004 % of injected dose per gram of tissue weight
Thyroid ([2]; 2 h): 0.449 ± 0.015 % of injected dose per gram of tissue weight
Tumor ([2]; 2 h): 0.424 ± 0.019 % of injected dose per gram of tissue weight
UTERUS ([2]; 2 h): 0.334 ± 0.034 % of injected dose per gram of tissue weight
BONE & JOINT ([2]; 4 h): 0.178 ± 0.022 % of injected dose per gram of tissue weight
Blood ([2]; 4 h): 1.031 ± 0.033 % of injected dose per gram of tissue weight
Heart ([2]; 4 h): 0.224 ± 0.004 % of injected dose per gram of tissue weight
Intestine ([2]; 4 h): 0.190 ± 0.006 % of injected dose per gram of tissue weight
Kidney ([2]; 4 h): 6.363 ± 0.260 % of injected dose per gram of tissue weight
Liver ([2]; 4 h): 1.506 ± 0.080 % of injected dose per gram of tissue weight
Lung ([2]; 4 h): 0.500 ± 0.011 % of injected dose per gram of tissue weight
Muscle ([2]; 4 h): 0.002 ± 0.004 % of injected dose per gram of tissue weight
Spleen ([2]; 4 h): 0.981 ± 0.041 % of injected dose per gram of tissue weight
Stomach ([2]; 4 h): 0.139 ± 0.004 % of injected dose per gram of tissue weight
Thyroid ([2]; 4 h): 0.372 ± 0.021 % of injected dose per gram of tissue weight
Tumor ([2]; 4 h): 0.406 ± 0.004 % of injected dose per gram of tissue weight
UTERUS ([2]; 4 h): 0.263 ± 0.005 % of injected dose per gram of tissue weight

Tumor/Blood ([3]; 30 min): 0.499 ± 0.022
Tumor/Lung ([3]; 30 min): 0.769 ± 0.047
Tumor/Muscle ([3]; 30 min): 3.352 ± 0.749
Tumor/Blood ([3]; 2 h): 0.424 ± 0.022
Tumor/Lung ([3]; 2 h): 0.587 ± 0.046
Tumor/Muscle ([3]; 2 h): 2.754 ± 0.120
Tumor/Blood ([3]; 4 h): 0.502 ± 0.120
Tumor/Lung ([3]; 4 h): 0.640 ± 0.120
Tumor/Muscle ([3]; 4 h): 2.795 ± 0.982
stability with or without transition chelators (gluconate and glucarate) [4]: does not interfere with the stability
Compound: O=C(N[C@H]1C(O)O[C@H](CO)[C@@H](O)[C@@H]1O)[C@@H]1C[S][Tc]23(=[O])[S]C[C@@H](C(=O)N[C@H]4C(O)O[C@H](CO)[C@@H](O)[C@@H]4O)[N]2CC[N]13 (some centres unmarked) [^99mTc-EC-DG]
Blood ([3]; 30 min): 1.607 ± 0.389 % of injected dose per gram of tissue weight
Brain ([3]; 30 min): 0.058 ± 0.008 % of injected dose per gram of tissue weight
Heart ([3]; 30 min): 0.611 ± 0.193 % of injected dose per gram of tissue weight
Intestine ([3]; 30 min): 0.510 ± 0.093 % of injected dose per gram of tissue weight
Kidney ([3]; 30 min): 6.726 ± 1.842 % of injected dose per gram of tissue weight
Liver ([3]; 30 min): 5.674 ± 2.089 % of injected dose per gram of tissue weight
Lung ([3]; 30 min): 1.048 ± 0.259 % of injected dose per gram of tissue weight
Muscle ([3]; 30 min): 0.264 ± 0.072 % of injected dose per gram of tissue weight
Spleen ([3]; 30 min): 3.240 ± 1.709 % of injected dose per gram of tissue weight
Stomach ([3]; 30 min): 0.540 ± 0.113 % of injected dose per gram of tissue weight
Thyroid ([3]; 30 min): 0.929 ± 0.212 % of injected dose per gram of tissue weight
Tumor ([3]; 30 min): 0.787 ± 0.163 % of injected dose per gram of tissue weight
Blood ([3]; 2 h): 0.977 ± 0.267 % of injected dose per gram of tissue weight
Brain ([3]; 2 h): 0.042 ± 0.006 % of injected dose per gram of tissue weight
Heart ([3]; 2 h): 0.336 ± 0.080 % of injected dose per gram of tissue weight
Intestine ([3]; 2 h): 0.417 ± 0.110 % of injected dose per gram of tissue weight
Kidney ([3]; 2 h): 5.687 ± 1.540 % of injected dose per gram of tissue weight
Liver ([3]; 2 h): 5.807 ± 1.708 % of injected dose per gram of tissue weight
Lung ([3]; 2 h): 0.721 ± 0.210 % of injected dose per gram of tissue weight
Muscle ([3]; 2 h): 0.148 ± 0.039 % of injected dose per gram of tissue weight
Spleen ([3]; 2 h): 4.205 ± 1.374 % of injected dose per gram of tissue weight
Stomach ([3]; 2 h): 0.439 ± 0.138 % of injected dose per gram of tissue weight
Thyroid ([3]; 2 h): 0.665 ± 0.207 % of injected dose per gram of tissue weight
Tumor ([3]; 2 h): 0.415 ± 0.123 % of injected dose per gram of tissue weight
Blood ([3]; 4 h): 0.787 ± 0.152 % of injected dose per gram of tissue weight
Brain ([3]; 4 h): 0.042 ± 0.006 % of injected dose per gram of tissue weight
Heart ([3]; 4 h): 0.318 ± 0.071 % of injected dose per gram of tissue weight
Intestine ([3]; 4 h): 0.374 ± 0.073 % of injected dose per gram of tissue weight
Kidney ([3]; 4 h): 4.318 ± 0.890 % of injected dose per gram of tissue weight
Liver ([3]; 4 h): 6.656 ± 1.786 % of injected dose per gram of tissue weight
Lung ([3]; 4 h): 0.606 ± 0.128 % of injected dose per gram of tissue weight
Muscle ([3]; 4 h): 0.147 ± 0.022 % of injected dose per gram of tissue weight
Spleen ([3]; 4 h): 5.933 ± 3.194 % of injected dose per gram of tissue weight
Stomach ([3]; 4 h): 0.541 ± 0.119 % of injected dose per gram of tissue weight
Thyroid ([3]; 4 h): 0.692 ± 0.119 % of injected dose per gram of tissue weight
Tumor ([3]; 4 h): 0.414 ± 0.161 % of injected dose per gram of tissue weight
tumor-to-tissue ratios, ^99mTc-EC-DG versus 18F-FDG ([3]; A549 nude mice, iv): higher tumor/muscle and tumor/brain ratios as a function of time

Compound: ^99mTc-EC-LHRH (QHWSYGLRPG; also: 99mTc-ethylenedicysteine label, site not given here; UniProt P01148 24-33, looked up)
cellular uptake compared to ^99mTc-EC [5]: significant increased uptake
